Drawing on PubChem BioAssay AID602168 (The Scripps Research Institute Molecular Screening Center, 2012), this text covers IC50 for 35 compounds.

Active and inactive are the calls of the source. How the calls were made is not given here. Bounds are passed on as bounds.

In this assay the target is Nuclear receptor coactivator 1 (Homo sapiens) (UniProt Q15788). Put plainly: NCOA1 reporter inhibition potency – cell-based, luminescence, counter-screen for SRC3 inhibitor project, dose response (AID 602168). The following applies: Cell-based SRC1 luciferase reporter.
Chain of Nuclear receptor coactivator 1 (Homo sapiens) (Q15788 whole entry, looked up): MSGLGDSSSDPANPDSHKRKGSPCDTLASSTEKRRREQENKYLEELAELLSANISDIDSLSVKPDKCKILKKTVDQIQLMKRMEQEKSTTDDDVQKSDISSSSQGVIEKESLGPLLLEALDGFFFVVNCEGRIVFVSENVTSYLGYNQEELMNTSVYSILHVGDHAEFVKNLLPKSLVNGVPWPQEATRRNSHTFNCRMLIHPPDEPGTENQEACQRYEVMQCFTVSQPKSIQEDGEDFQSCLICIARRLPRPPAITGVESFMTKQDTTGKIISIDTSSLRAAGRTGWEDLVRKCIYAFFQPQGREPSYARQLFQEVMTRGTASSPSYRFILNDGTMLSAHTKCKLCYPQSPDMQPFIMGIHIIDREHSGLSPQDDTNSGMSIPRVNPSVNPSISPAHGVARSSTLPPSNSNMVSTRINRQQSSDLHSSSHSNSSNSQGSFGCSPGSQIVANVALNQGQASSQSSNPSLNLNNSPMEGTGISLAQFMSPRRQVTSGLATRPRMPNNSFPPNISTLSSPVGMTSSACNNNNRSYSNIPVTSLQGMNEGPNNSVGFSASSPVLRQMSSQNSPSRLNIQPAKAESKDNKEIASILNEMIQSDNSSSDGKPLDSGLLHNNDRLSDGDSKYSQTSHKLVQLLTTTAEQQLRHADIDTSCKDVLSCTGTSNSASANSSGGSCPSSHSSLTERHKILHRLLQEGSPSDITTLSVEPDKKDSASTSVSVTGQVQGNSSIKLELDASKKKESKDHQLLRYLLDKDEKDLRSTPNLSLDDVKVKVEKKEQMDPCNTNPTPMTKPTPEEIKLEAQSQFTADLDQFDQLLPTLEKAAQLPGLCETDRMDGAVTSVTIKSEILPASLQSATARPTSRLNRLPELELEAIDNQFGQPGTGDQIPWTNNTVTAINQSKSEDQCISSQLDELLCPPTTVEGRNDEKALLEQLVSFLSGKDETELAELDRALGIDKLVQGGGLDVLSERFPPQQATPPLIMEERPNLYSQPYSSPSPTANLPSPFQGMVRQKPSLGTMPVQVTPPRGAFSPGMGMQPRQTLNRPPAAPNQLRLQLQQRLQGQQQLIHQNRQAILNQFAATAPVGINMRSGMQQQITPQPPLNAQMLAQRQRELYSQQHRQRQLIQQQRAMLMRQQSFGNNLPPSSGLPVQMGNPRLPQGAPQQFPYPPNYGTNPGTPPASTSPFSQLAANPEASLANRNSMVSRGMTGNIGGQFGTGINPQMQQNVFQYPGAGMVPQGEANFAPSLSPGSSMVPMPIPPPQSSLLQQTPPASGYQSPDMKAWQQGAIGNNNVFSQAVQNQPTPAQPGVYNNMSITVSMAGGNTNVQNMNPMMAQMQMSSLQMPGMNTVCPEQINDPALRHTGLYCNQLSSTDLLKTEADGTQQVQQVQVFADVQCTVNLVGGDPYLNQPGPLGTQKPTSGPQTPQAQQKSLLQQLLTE
What is called IC50 is the concentration needed to halve the response being measured. `Cc1nc(N2CCC(C(N)=O)CC2)c2c(-c3cccs3)csc2n1`: the concentration for half-maximal inhibition (IC50) is 8.33 µM. As for `NC(=O)c1cc(Sc2ccccc2)nc2ccccc12`, the IC50 result is “inactive”. As to `COc1cc(NS(C)(=O)=O)ccc1Nc1c2ccccc2nc2ccccc12`, the IC50 is > 35.9 µM (inactive). For `O=c1[nH]c2ccccc2n1C1CCN(C(c2cc3ccccc3o2)c2nnnn2Cc2ccccc2)CC1` (stereo not given) the value was “inactive”; for `CCCC(=O)NC(c1ccc(Cl)cc1)c1ccc2cccnc2c1O` (stereo not given), 8.71 µM; for `O=C(N/N=C\c1ccc([N+](=O)[O-])o1)C1COc2ccccc2O1` (stereo not given), > 35.9 µM (inactive). As for `O=C(Nc1ccccc1Oc1ccccc1)c1cc([N+](=O)[O-])ccc1Cl`, the IC50 result was “inactive”. In the case of `Cc1cc(-c2nnc(SCC(=O)Nc3ccccc3C(F)(F)F)o2)c(C)n1-c1ccccc1`, the IC50 was > 35.9 µM (inactive). The figure for `O=C(CNc1cccc([N+](=O)[O-])c1)N/N=C/c1ccc([N+](=O)[O-])o1` is > 35.9 µM (inactive); for `CNc1ncnc(Sc2nc(N)nc3nc[nH]c23)c1[N+](=O)[O-]` it is > 35.9 µM (inactive); for `CCOc1cc(/C=C2\CCC/C(=C\c3cc(Cl)c(O)c(OCC)c3)C2=O)cc(Cl)c1O` it is > 35.8 µM (inactive). Turning to `Cc1cc2nccc(-c3ccncc3)n2n1`, the IC50 result was “inactive”. With `C=CCn1c(C)cc(C(=O)COc2ccc(C)nc2[N+](=O)[O-])c1C`, the IC50 was > 35.9 µM (inactive).

For `Cc1ccc(C(=O)O/N=C(\N)c2ccccn2)c(Cl)c1`, the IC50 was > 35.9 µM (inactive).

Take `COc1cccc(CNc2ncnc3ccc(-c4c(C)noc4C)cc23)c1`: the IC50 is > 35.9 µM (inactive). For `Clc1ccc(-c2csc3ncnc(NCCN4CCOCC4)c23)cc1` the value was “inactive”. Take `COc1ccc(-c2nsc3c(N4CCCCC4)ncnc23)cc1`: the IC50 was > 35.9 µM (inactive). For `CCOC(=O)c1cc2sccc2n1CC(=O)N1CCc2ccccc21` the value was > 35.9 µM (inactive). The figure for `Cc1ccc2occ(/C=N/NC(=O)c3ccccc3Br)c(=O)c2c1` is > 35.9 µM (inactive); for `c1cc2[nH]snc2c2nc(C3CC3)nc12` it is “inactive”; for `O=C(NCc1ccccc1)c1c(Cl)nc(Cl)c(Cl)c1Cl` it is > 35.9 µM (inactive). As to `O=C(NC(NC(=S)N1CCOCC1)C(Cl)(Cl)Cl)c1ccc(Cl)cc1` (stereo not given), the IC50 result was “inactive”. The figure for `Cc1c(Cl)cccc1NC(=O)Nc1ccccc1C(N)=O` is > 35.9 µM (inactive). For `C(=NNc1ccc2ccccc2n1)c1ccccn1` the value was > 35.9 µM (inactive); for `O=C(CCl)N1N=C(c2ccco2)CC1c1ccco1` (stereo not given), > 35.9 µM (inactive).

As to `CC(=O)c1cccc(NC(=O)Nc2ccc3c(c2)N(C)C(=O)CS3)c1`, the IC50 result is “inactive”. On to `COc1cc(C(=O)N/N=C(\c2ccccc2)c2ccccn2)cc(OC)c1OC`, for which the IC50 was > 12 µM (inactive). For `c1ccc(-c2noc(-c3ccc4ccccc4c3)n2)nc1` the value was “inactive”. For `CC(=O)Nc1ccc(SCC(=O)c2cc(C)n(-c3ccccc3F)c2C)cc1` the value was > 12 µM (inactive); for `C=CCOc1ccc(/C=C2\SC(=S)N(CCC(=O)O)C2=O)cc1`, 6.96 µM. As for `COc1ccc(Nc2ccncc2[N+](=O)[O-])cc1`, the IC50 was 9.17 µM. In the case of `O=C(OCc1ccccc1)c1ccc(NCc2cc(O)ccc2O)cc1`, the IC50 was > 12 µM (inactive). The entry for `CCc1ccc(/C=C2\SC(=S)N(CCCC(=O)NCCCN3CCOCC3)C2=O)cc1` is “inactive”; for `COc1cc2c(cc1OC)C(C)N(C(=O)c1cccc([N+](=O)[O-])c1)CC2` (stereo not given) it is “inactive”; for `CC(C)(C)c1cc(C(=O)N/N=C/c2ccc(O)cc2)n(-c2ccccc2)n1` it is > 35.9 µM (inactive).
